# Laboratory results taken from patent US4812443A, “Methods for enhancing differentiation and proliferation of hematopoietic progenitor cells” (Kuraray Co., Ltd., priority 1984, dated 1989).
# Assays:
# [1] = system: late erythrocytic progenitor cells (CFU-e); assay: Differentiation and proliferation of late erythrocytic progenitor cells (CFU-e), cluster colony formation; format: cell-based, mouse (BDF1-strain); settings: 20 μg/ml, Runs 2 to 4; for Number of colonies formed in the dolichols-added group (CFU-e): 2 days, erythropoietin 0.25 unit, mean ± S.E., 6 replicas, solvent controls 124.2 ± 2.7, 246.0 ± 5.0, 124.7 ± 2.9
# Procedure: (§1) The mouse bone marrow cells used in the following experiments were all prepared as follows:
# (§2) BDF1 -strain mice (female, 8 to 10 weeks old) were killed by cervical dislocation, and the femurs were collected under sterile conditions. The bone marrow cells were flushed out from the femurs with α-medium, and formed into a single cell suspension by repeated aspiration with a 26-gauge needle fitted to a 1 ml-syringe. The cells were washed two times with α-medium by centrifugation at 200×G for 5 minutes and used in the following experiments.
# In accordance with the method of Murphy et al. mentioned above, mouse bone marrow cells were plated at 2.5×10^4 nuclear cells into 0.5 ml of α-medium containing 0.25 unit of erythropoietin, 30% fetal bovine serum, 1% bovine serum albumin, 0.1 mM 2-mercaptoethanol and 0.4% methyl cellulose with 10 μg of dolichol dissolved in 1 μl of ethanol, 10 μg of dolichyl phosphate dispersed in 0.5 μl of dimethyl sulfoxide, 1 μl of ethanol or 0.5 μl of dimethyl sulfoxide in a 16 mm.phi. tissue culture plate, and incubated at 37° C. in a humidified atmosphere of 5% carbon dioxide in air for 2 days. The number of cluster colonies consisting of 8 to 64 erythroblasts derived from CFU-e in the tissue culture plate was scored with an inverted microscope. The experiment was carried out by 6 replica assays for each group, and the average number of the colonies formed was determined. The results are shown in Table 3, in the rows of Runs 2 to 4.
# [2] = system: granulocyte-macrophage progenitor cells (CFU-c); assay: Differentiation and proliferation of granulocyte-macrophage progenitor cells (CFU-c), colony formation; format: cell-based, mouse (BDF1-strain); settings: printed 20 g/ml (method: 20 μg in 1 ml), Run 5
# Procedure: as §1, §2
# In accordance with the method of Worton et al. [R. G. Worton et al., J. Cell Physiol., 74, 171 (1969)], mouse bone marrow cells were plated at 1×10^5 nuclear cells into 1 ml of α-medium containing 10% L cell-conditioned medium as source of colony stimulating factor, 20% fetal bovine serum and 0.8% methyl cellulose with 20 μg of dolichyl phosphate dispersed in 1 μl of dimethyl sulfoxide or 1 μl of dimethyl sulfoxide in a 35 mm.phi. tissue culture plate, and incubated at 37° C. in a humidified atmosphere of 5% carbon dioxide in air for 7 days. The number of colonies consisting of more than 50 cells (granulocytecolonies, macrophage colonies or their mixed colonies) derived from […] was scored with an inverted microscope. The experiment was carried out by 6 replica assays for each group, and the average number of the colonies formed was determined.
# erythropoiesis = assay: Erythropoiesis in vivo, 59Fe incorporation in hereditarily anemic mice (Run 7); set-up: species or system mouse (WBB6 F1-W/Wv-strain); settings: 250 mg/kg once i.p.
# Procedure: Phenylhydrazine was administered to normal mice and hereditarily anemic mice to induce severe hemolytic anemia. Then, the rate of erythropoiesis during recovering of anemia was determined by measuring the rate of radioactive iron (^59 Fe) incorporation into newly formed red blood cells [P. M. Cotes, D. R. Bangham, Nature (London), 191, 1067 (1961)]. The testing method and results are described below.
# Dolichyl phosphate in a dose of 250 mg/kg (0.2 ml of an emulsion obtained by emulsifying […] of dolichyl phosphate and 25 mg of sesame oil in 1 ml of a 1% aqueous solution of sodium carboxymethyl cellulose per 20 g of the body weight) was intraperitoneally administered to hereditarily anemic WBB6 F1 -W/Wv-strain mice (6 weeks old, female) on the 1st day of the experiment. A 1% aqueous solution of sodium carboxymethyl cellulose was intraperitoneally administered (0.2 ml/20 g of body weight) to a control group. On the 2nd day, the mice in each group were subcutaneously injected with phenylhydrazine hydrochloride in a dose of 60 mg/kg. […] On the 5th day, 0.5 ml of the whole blood was taken from each mouse, and the ^59 Fe incorporation rates during the period of 48 hours were measured as in Run 6. The experiment was carried out on 6 mice in each group, and the average value of the incorporation rates was calculated.
# [3] = system: early erythrocytic progenitor cells (BFU-e); assay: Differentiation and proliferation of early erythrocytic progenitor cells (BFU-e), burst colony formation; format: cell-based, mouse (BDF1-strain); settings: 20 μg/ml, Run 1
# Procedure: as §1, §2
# In accordance with the method of Murphy et al. (In Vitro Aspects of Erythropoiesis, page 262, Sringer-Verlag, 1978), mouse bone marrow cells were plated at 2×10^5 nuclear cells into 1 ml of α-medium containing 1 unit of erythropoietin, 30% fetal bovine serum, 1% bovine serum albumin, 0.1 mM 2-mercaptoethanol and 0.8% methyl cellulose with 20 μg of dolichyl phosphate dispersed in 1 μl of dimethyl sulfoxide or 1 μl of dimethyl sulfoxide in a 35 mm.phi. tissue culture plate, and incubated at 37° C. in a humidified atmosphere of 5% carbon dioxide in air for 9 days. The number of burst colonies consisting of more than 500 erythroblasts derived from BFU-e in the tissue culture plate was scored with an inverted microscope. The experiment was carried out by 6 replica assays for each group, and the average number of the colonies formed was determined.
# mice = assay: Acute toxicity of dolichyl phosphate in mice; format: in vivo, mouse (BDF1-strain); settings: 1000 mg/kg and 2000 mg/kg i.p.; 2nd day of administration
# Procedure: (2) Dolichyl phosphate synthesized in Referential Example 3 below was dissolved in the same amount of sesame oil, and added to a 1% aqueous solution of sodium carboxy methyl cellulose so that the concentration of dolichyl phosphate reached 5% V/V. The resulting emulsion was used in the test.
# BDF1 -strain mice (20-23 g, female), 6 per group, were used.
# [4] = system: erythropoietic progenitor cells; settings: in vitro cell culture, presence of hematopoietic stimulating hormones; Table 1; cited from earlier work
# [5] = general knowledge; cited from earlier work
# [6] = system: dolichol biosynthesis in spleen; settings: phenylhydrazine subcutaneous (induced anemia); cited from earlier work
# sea urchin embryos = settings: compactin added to the culture of the embryos; cited from earlier work
molecule,measurement,setting,value
CC(C)=CCC/C(C)=C/CC/C(C)=C/CC/C(C)=C\CC/C(C)=C\CC/C(C)=C\CC/C(C)=C\CC/C(C)=C\CC/C(C)=C\CC/C(C)=C\CC/C(C)=C\CC/C(C)=C\CC/C(C)=C\CC/C(C)=C\CC/C(C)=C\CC/C(C)=C\CC/C(C)=C\CC/C(C)=C\CC[C@H](C)CCO [Dolichol (n = 15)],Number of colonies formed in the dolichols-added group (CFU-e),[1],293.0 ± 6.2
same,activation at 20 µg/mL,"[1]; Mus musculus, 48 h, vs solvent-added control group, read-out: Percent increase (%) of colony formation (CFU-e)",19.1%
dolichyl phosphate,Number of colonies formed in the dolichols-added group (CFU-c),"[2]; 7 days, mean ± S.E., 6 replicas, solvent control 256.8 ± 4.3",295.3 ± 4.9
same,Percent increase (%) of colony formation (CFU-c),[2]; vs solvent-added control group,+15.0%
same,"59Fe incorporation rate (%), dolichol administered group","erythropoiesis; 48 hours, control group 21.4",23.1%
same,Erythropoiesis enhancing ratio (%),erythropoiesis; percent increase of 59Fe incorporation rate vs control,+7.9%
same,Number of colonies formed in the dolichols-added group (BFU-e),"[3]; 9 days, erythropoietin 1 unit, mean ± S.E., 6 replicas, solvent control 73.7 ± 3.4",99.5 ± 2.4
same,Percent increase (%) of colony formation (BFU-e),[3]; vs solvent-added control group,+35.0%
same,Number of colonies formed in the dolichols-added group (CFU-e),[1],166.7 ± 2.4
same,Percent increase (%) of colony formation (CFU-e),[1]; vs solvent-added control group,+33.7%
same,Mortality,mice,no case of death in all of the mice tested
Growth hormone: hormone named in Table 1,Effect on colony formation of erythropoietic progenitor cells,[4],.uparw.
C[C@@H]1C[C@H]2[C@@H]3CCC4=CC(=O)C=C[C@]4(C)[C@@]3(F)[C@@H](O)C[C@]2(C)[C@@]1(O)C(=O)CO [Dexamethasone],Side-effects,[5],"clinically undesirable side-effects such as electrolytic disorders, hypertension, peptic ulcer, diabetes, liver impediments, and masculinization"
same,Effect on colony formation of erythropoietic progenitor cells,[4],.uparw.
Thyroid hormone,Effect on colony formation of erythropoietic progenitor cells,[4],.uparw.
"NNc1ccccc1 [phenylhydrazine, reference compound]",Rate of dolichol biosynthesis in spleen,[6],greatly increased
CC[C@H](C)C(=O)O[C@H]1CCC=C2C=C[C@H](C)[C@H](CC[C@@H]3C[C@@H](O)CC(=O)O3)[C@H]21 [compactin],Differentiation of sea urchin embryos,sea urchin embryos,did not occur
Prostaglandin E,Effect on colony formation of erythropoietic progenitor cells,[4],.uparw.
"Human chorionic somatomammotropin: hormone named in Table 1 (protein, UniProt P0DML2 27-217, looked up) Chorionic somatomammotropin …: VQTVPLSRLFDHAMLQAHRAHQLAIDTYQEFEETYIPKDQKYSFLHDSQTSFCFSDSIPTPSNMEETQQKSNLELLRISLLLIESWLEPVRFLRSMFANNLVYDTSDSDDYHLLKDLEEGIQTLMGRLEDGSRRTGQILKQTYSKFDTNSHNHDALLKNYGLLYCFRKDMDKVETFLRMVQCRSVEGSCGF",Effect on colony formation of erythropoietic progenitor cells,[4],.uparw.
